Data: a compilation of properties of binary mixtures (doi:10.1039/c5cp02799c)

Assay: xn = mol fraction of the nth substance listed
Details: 101.3 kPa

CCCCC[P+](CC)(CC)CC.O=S(=O)([N-]S(=O)(=O)C(F)(F)F)C(F)(F)F + O=S(=O)([N-]S(=O)(=O)C(F)(F)F)C(F)(F)F.[Li+]
Details	electrical conductivity [S/m]	viscosity [mPa·s]
298.2 K, x2 = 0.25	0.062	–
298.2 K, x2 = 0.39	0.016	1300
298.3 K, x2 = 0.25	–	310
300.2 K, x2 = 0.25	–	270
300.2 K, x2 = 0.39	0.019	–
300.3 K, x2 = 0.25	0.075	–
306.2 K, x2 = 0.25	0.1	–
306.2 K, x2 = 0.39	0.028	670
306.3 K, x2 = 0.25	–	180
312.2 K, x2 = 0.39	0.041	–
312.3 K, x2 = 0.25	0.14	130
312.3 K, x2 = 0.39	–	440
318.2 K, x2 = 0.39	0.058	290
318.3 K, x2 = 0.25	0.18	95
324.3 K, x2 = 0.25	0.23	71
330.3 K, x2 = 0.25	0.29	–
330.4 K, x2 = 0.25	–	54
336.2 K, x2 = 0.39	0.15	110
341.2 K, x2 = 0.39	–	85
348.2 K, x2 = 0.39	0.24	63
355.2 K, x2 = 0.39	–	47
355.3 K, x2 = 0.25	–	21
361.3 K, x2 = 0.25	0.73	–
361.4 K, x2 = 0.25	–	18
374.2 K, x2 = 0.25	–	12
374.2 K, x2 = 0.39	–	24

CC[P+](CC)(CC)CCOC.O=S(=O)([N-]S(=O)(=O)C(F)(F)F)C(F)(F)F + O=S(=O)([N-]S(=O)(=O)C(F)(F)F)C(F)(F)F.[Li+]
Details	electrical conductivity [S/m]	viscosity [mPa·s]
298.2 K, x2 = 0.39	0.51	620
300.1 K, x2 = 0.39	–	540
300.2 K, x2 = 0.25	–	150
300.2 K, x2 = 0.39	0.55	–
300.3 K, x2 = 0.25	1.1	–
306.1 K, x2 = 0.39	–	360
306.2 K, x2 = 0.25	1.2	–
306.2 K, x2 = 0.39	0.68	–
306.3 K, x2 = 0.25	–	110
312.2 K, x2 = 0.25	–	81
312.3 K, x2 = 0.25	1.3	–
312.3 K, x2 = 0.39	–	250
318.1 K, x2 = 0.39	–	180
318.2 K, x2 = 0.39	0.91	–
318.3 K, x2 = 0.25	1.4	61
324.2 K, x2 = 0.25	–	47
324.2 K, x2 = 0.39	1	130
324.3 K, x2 = 0.25	1.4	–
330.2 K, x2 = 0.39	1.1	95
330.3 K, x2 = 0.25	1.5	37
336.2 K, x2 = 0.39	1.2	72
336.3 K, x2 = 0.25	1.6	30
341.1 K, x2 = 0.39	–	58
341.3 K, x2 = 0.25	–	25
348.2 K, x2 = 0.25	1.7	20
348.2 K, x2 = 0.39	1.3	45
355.2 K, x2 = 0.39	–	34
361.2 K, x2 = 0.39	–	28
361.3 K, x2 = 0.25	1.8	14
374.2 K, x2 = 0.39	–	19
374.3 K, x2 = 0.25	–	10
